# Measured values published in PubChem BioAssay (NCI).
#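 Dose response: 5 concentrations. Exposure: 48 h. Format: 96-well plates. Endpoint: linear interpolation; highest concentration if not reached. TGI: concentration producing complete growth inhibition.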
# Legend:
# Experiment in all cases: NCI tumour cell line growth inhibition, 48 h
# MCF7 breast = test system: MCF7 breast
# HCC-2998 colon = test system: HCC-2998 colon
# COLO 205 colon = test system: COLO 205 colon
# MDA-MB-231 breast = test system: MDA-MB-231 breast
# 786-0 renal = test system: 786-0 renal
# T-47D breast = test system: T-47D breast
# NCI-H226 lung = test system: NCI-H226 lung
# SK-MEL-28 melanoma = test system: SK-MEL-28 melanoma
# RXF 393 renal = test system: RXF 393 renal
# HS 578T breast = test system: HS 578T breast
# OVCAR-8 ovarian = test system: OVCAR-8 ovarian
# SF-539 CNS = test system: SF-539 CNS
# PC-3 prostate = test system: PC-3 prostate
# U251 CNS = test system: U251 CNS
# CAKI-1 renal = test system: CAKI-1 renal
# BT-549 breast = test system: BT-549 breast
# OVCAR-3 ovarian = test system: OVCAR-3 ovarian
# SK-MEL-5 melanoma = test system: SK-MEL-5 melanoma
# KM12 colon = test system: KM12 colon
# SK-OV-3 ovarian = test system: SK-OV-3 ovarian
# SF-295 CNS = test system: SF-295 CNS
# HOP-92 NSCLC = test system: HOP-92 NSCLC
# ACHN renal = test system: ACHN renal
# LOX IMVI melanoma = test system: LOX IMVI melanoma
# A498 renal = test system: A498 renal
# MDA-N = test system: MDA-N
# NCI-H522 lung = test system: NCI-H522 lung
# SN12C renal = test system: SN12C renal
# HT29 colon = test system: HT29 colon
# K-562 leukemia = test system: K-562 leukemia
# MALME-3M melanoma = test system: MALME-3M melanoma
# RPMI-8226 leukemia = test system: RPMI-8226 leukemia
# SR leukemia = test system: SR leukemia
# OVCAR-4 ovarian = test system: OVCAR-4 ovarian
# M14 melanoma = test system: M14 melanoma
# SW-620 colon = test system: SW-620 colon
# MDA-MB-435 = test system: MDA-MB-435
# NCI/ADR-RES ovarian = test system: NCI/ADR-RES ovarian
# OVCAR-5 ovarian = test system: OVCAR-5 ovarian
# CCRF-CEM leukemia = test system: CCRF-CEM leukemia
# MOLT-4 leukemia = test system: MOLT-4 leukemia
# HCT-116 colon = test system: HCT-116 colon
# SF-268 CNS = test system: SF-268 CNS
# NCI-H23 lung = test system: NCI-H23 lung
# SK-MEL-2 melanoma = test system: SK-MEL-2 melanoma
# DU-145 prostate = test system: DU-145 prostate
# UACC-257 melanoma = test system: UACC-257 melanoma
# UACC-62 melanoma = test system: UACC-62 melanoma
# UO-31 renal = test system: UO-31 renal
# A549 NSCLC = test system: A549 NSCLC
# SNB-75 CNS = test system: SNB-75 CNS
# HCT-15 colon = test system: HCT-15 colon
# SNB-19 CNS = test system: SNB-19 CNS
# HOP-62 NSCLC = test system: HOP-62 NSCLC
# TK-10 renal = test system: TK-10 renal
# HL-60(TB) leukemia = test system: HL-60(TB) leukemia
# EKVX NSCLC = test system: EKVX NSCLC
smiles,measurement,setting,value
C[C@@H]1C[C@@H]2OC(=O)[C@]3(C)[C@H]2[C@@H](OC3(C)O)[C@]2(C)C(=O)C=C[C@@H]12 (some centres not stated),TGI,MCF7 breast,32.7 µM
same,TGI,HCC-2998 colon,35.1 µM
same,TGI,COLO 205 colon,32 µM
same,TGI,MDA-MB-231 breast,64.5 µM
same,TGI,786-0 renal,> 100 µM
same,TGI,T-47D breast,44.5 µM
same,TGI,NCI-H226 lung,> 100 µM
same,TGI,SK-MEL-28 melanoma,45 µM
same,TGI,RXF 393 renal,46 µM
same,TGI,HS 578T breast,> 100 µM
same,TGI,OVCAR-8 ovarian,> 100 µM
same,TGI,SF-539 CNS,> 100 µM
same,TGI,PC-3 prostate,> 100 µM
same,TGI,U251 CNS,> 100 µM
same,TGI,CAKI-1 renal,62.1 µM
same,TGI,BT-549 breast,23.1 µM
same,TGI,OVCAR-3 ovarian,44.3 µM
same,TGI,SK-MEL-5 melanoma,51.2 µM
same,TGI,KM12 colon,58.7 µM
same,TGI,SK-OV-3 ovarian,> 100 µM
same,TGI,SF-295 CNS,> 100 µM
same,TGI,HOP-92 NSCLC,38.9 µM
same,TGI,ACHN renal,45 µM
same,TGI,LOX IMVI melanoma,43 µM
same,TGI,A498 renal,70.6 µM
same,TGI,MDA-N,35.5 µM
same,TGI,NCI-H522 lung,23.8 µM
same,TGI,SN12C renal,38.1 µM
same,TGI,HT29 colon,35.1 µM
same,TGI,K-562 leukemia,2690 nM
same,TGI,MALME-3M melanoma,30.7 µM
same,TGI,RPMI-8226 leukemia,17.7 µM
same,TGI,SR leukemia,28.5 µM
same,TGI,OVCAR-4 ovarian,35.9 µM
same,TGI,M14 melanoma,41.8 µM
same,TGI,SW-620 colon,51.9 µM
same,TGI,MDA-MB-435,66.9 µM
same,TGI,NCI/ADR-RES ovarian,> 100 µM
same,TGI,OVCAR-5 ovarian,41 µM
same,TGI,CCRF-CEM leukemia,31.8 µM
same,TGI,MOLT-4 leukemia,39.7 µM
same,TGI,HCT-116 colon,37.6 µM
same,TGI,SF-268 CNS,> 100 µM
same,TGI,NCI-H23 lung,70 µM
same,TGI,SK-MEL-2 melanoma,54.7 µM
same,TGI,DU-145 prostate,> 100 µM
same,TGI,UACC-257 melanoma,50.2 µM
same,TGI,UACC-62 melanoma,31.6 µM
same,TGI,UO-31 renal,> 100 µM
same,TGI,A549 NSCLC,> 100 µM
same,TGI,SNB-75 CNS,> 100 µM
same,TGI,HCT-15 colon,30.2 µM
same,TGI,SNB-19 CNS,> 100 µM
same,TGI,HOP-62 NSCLC,> 100 µM
same,TGI,TK-10 renal,> 100 µM
same,TGI,HL-60(TB) leukemia,11.2 µM
same,TGI,EKVX NSCLC,49.2 µM
